The NIST ThermoML archive (doi:10.1016/j.fluid.2015.12.053)

Experiments:
[1] = Liquid, Ebulliometric method (Recirculating still)
[2] = wn = mass fraction of the nth substance listed; conditions: 100 kPa, Liquid, Pycnometric method

Cl.Nc1ccccc1 [aniline hydrochloride]
[1]
Conditions	vapor or sublimation pressure [kPa]
475.15 K	23.25
480.15 K	27.25
484.15 K	31.25
488.15 K	34.25
493.15 K	41.25
494.15 K	44.25
495.15 K	45.25
496.15 K	46.25
498.15 K	49.25
499.15 K	51.25
500.15 K	52.75
501.15 K	54.75
502.15 K	56.25
503.15 K	59
505.15 K	62.25
509.15 K	71.25
512.15 K	79.25
513.65 K	83.75
516.15 K	91.25
517.65 K	97.25
519.15 K	101.5
519.65 K	105.25
521.15 K	112.25
522.15 K	118.25
524.15 K	131.25
525.15 K	136.25
526.15 K	141.25
527.15 K	148.25

Cl.Nc1ccccc1 [aniline hydrochloride] + O
mass density [kg/m3], [2]
Conditions	w1 = 0.01	w1 = 0.05	w1 = 0.1	w1 = 0.15	w1 = 0.2	w1 = 0.3	w1 = 0.35	w1 = 0.4	w1 = 0.6
298.15 K	1000	1009.2	1018.9	1028.7	1038.5	1057.8	1068	1078.3	–
303.15 K	997.4	1007.3	1016.3	1026.6	1036.8	1056	1065.8	1075.6	–
313.15 K	994.3	1002.3	1012.3	1021.7	1031	1049.6	1059.7	1069.7	–
323.15 K	989.5	995.9	1007.3	1016.5	1025.8	1045.3	1055.1	1065	1107.5
333.15 K	985.6	991.2	1003.8	1012.8	1021.8	1040.6	1050.1	1059.6	1103.3
343.15 K	979.1	985.1	997.1	1005.9	1014.7	1033.5	1043	1052.5	1097.1
353.15 K	975.1	980.7	990.2	998.8	1007.4	1026.7	1036.3	1045.9	1087
356.65 K	965.4	973.4	978.7	987.6	996.6	1016	1026.1	1036.3	1078

O [water] + Cl.Nc1ccccc1
[2], w2 = 0
Conditions	mass density [kg/m3]
298.15 K	997.7
303.15 K	996
313.15 K	992
323.15 K	986.6
333.15 K	983.1
343.15 K	977.3
353.15 K	971.8
356.65 K	963.9
